Converted amounts (≈) assume the structure as drawn.
conditions: buffer; pH 7.4; 200.0 µM

| Compound | solubility kinetic [µg/mL] |
| --- | --- |
| Cc1ccc(/C=C/C(=O)NCc2cccs2)c(C)c1 | < 0.6 |
| O=C(NCCc1ccccc1)C(=S)N1CCCCC1 | > 41.5 |
| CC(=O)c1ccc(OC(C)C(=O)NCC2(N3CCOCC3)CCCCC2)cc1 (centres undefined) | > 58.3 |
| CN1CCc2c(sc(NC(=O)Cc3ccc(F)cc3)c2C(N)=O)C1.Cl | 52.6 |
| Fc1ccccc1OCCCn1ccnc1 | > 33 |
| O=C(COC(=O)C1CC1)Nc1ccc2[nH]c(=O)[nH]c2c1 | > 41.3 |
| CCOc1ccc(/C=N/N2C(C)CCCC2C)cc1OC (centres undefined) | > 43.6 |
| CCOc1ccc(C(=O)NCC2CCN(CC3CCCCC3)CC2)cc1 | > 53.8 |
| O=C(c1ccc2c(c1)OCCCO2)N1CCCCC1 | 28.6 (≈ 109 µM) |
| C/C(=N\OCC(=O)NC(C)C)c1cccs1 | 32.5 (≈ 135 µM) |
| Nc1cc(S(=O)(=O)N2CCCCC2)ccc1N1CCOCC1 | 38.7 (≈ 119 µM) |
| COc1ccc(-c2noc(CCCC(=O)N3CCOCC3)n2)cc1 | 49.6 (≈ 150 µM) |
| Cc1cc(Cl)ccc1OC(C)C(=O)NC(C)C1CCCO1 (centres undefined) | > 46.8 |
| COc1cc(OC)cc(C(=O)Nc2cccc3c2CCCC3)c1 | < 0.7 |
| Fc1ccc(OCCOCCN2CCCC2)cc1 | 28 (≈ 111 µM) |
| Cc1c(C(=O)N(C)C(C)c2ccncn2)oc2c(F)cccc12 (centres undefined) | > 47 |
| CN1CCC(N(C)C(=S)NCCc2ccccc2)CC1 | > 43.7 |
| COc1ccc2c(CC(=O)OCC(=O)NC(N)=O)coc2c1 | 18.1 (≈ 59.1 µM) |
| O=C(Nc1ccc(Cl)c(Cl)c1)c1ccco1 | 8.5 (≈ 33.2 µM) |
| Cc1nn(CC(=O)N2CCc3ccccc3C2)c(C)c1[N+](=O)[O-] | > 47.2 |
| CCSC1=NCCN1C(=O)c1c(-c2ccccc2Cl)noc1C | > 52.5 |
| O=C(NC1CCCCC1)c1ccc2[nH]c(=O)c(=O)[nH]c2c1 | > 43.1 |
| COCCNC(=O)Cc1c(C)c2c(cc(C)c3c(C(C)(C)C)coc32)oc1=O | 3.2 (≈ 8.3 µM) |
| CCCc1ccc(OCC(O)CN2CCCC2)cc1.Cl (centres undefined) | 37.2 |
| CCOc1ccc(N2C(=O)CC(Sc3nc(O)c(CC)c(=O)[nH]3)C2=O)cc1 (centres undefined) | > 58.4 |
| COc1cc(C(=O)NCCCc2ccccc2)cc(OC)c1OC | > 49.4 |
| O=C(O)C(=O)O.O=[N+]([O-])c1ccccc1CNC1CCCCCC1 | > 50.8 |
| O=C(NCCc1ccc(Cl)cc1)c1cnccn1 | > 39.3 |
| S=C(NCc1ccco1)Nc1cccc(Cl)c1Cl | 11.3 (≈ 37.5 µM) |

Other lines, results leading:

| solubility kinetic [µg/mL] | Compound |
| --- | --- |
| > 57.2 | O=C(O)c1cccc(-n2c(O)c(C=C3N=c4ccccc4=N3)sc2=S)c1 |
| > 61.4 | N#Cc1c(C(F)(F)F)cc(Cc2ccccc2)nc1SCC(=O)NCC(=O)O |
| 0.2 (≈ 0.754 µM) | Cc1cc(C)cc(Nc2nc3ccccc3c(=O)[nH]2)c1 |
| 36.8 (≈ 117 µM) | O=C(CNCc1ccc(Cl)cc1)N1CCc2ccccc2C1 |
| 27 (≈ 87.3 µM) | N#Cc1ccc(S(=O)(=O)Nc2ccc3ccccc3n2)cc1 |
| 3.7 (≈ 13.7 µM) | Cc1ccc(C)c(NC(=O)CCOc2ccccc2)c1 |
| 31.6 (≈ 95.7 µM) | O=C(CSc1ccc(F)cc1)Nc1ccc2c(c1)C(=O)NC2=O |
| > 40.4 | Cc1cnc(C(=O)NC(C)CCc2ccccc2)cn1 (centres undefined) |
| 1.6 (≈ 4.8 µM) | CC(=O)Nc1sc(C)c(C)c1C(=O)OCCOc1ccccc1 |
| 2.7 (≈ 8.12 µM) | O=C(Nc1ccc(N2CCOCC2)cc1)c1cccc2ccccc12 |
| 21.1 (≈ 74.5 µM) | CCCCc1ccc(NC(=O)NCc2cccnc2)cc1 |
| > 45.7 | CCOC(=O)Cc1csc(NC(=O)Cc2ccccc2)n1 |
| 14 (≈ 44.5 µM) | C=CCNC(=S)N(Cc1ccccc1)Cc1ccc(F)cc1 |
| < 0.4 | CCOC(=O)C(=CNc1ccc2c(c1)c1ccccc1n2CC)C(=O)OCC |
| > 46.1 | O=C(COC(=O)c1c[nH]c(=O)[nH]c1=O)Nc1ccccc1F |
| 0.9 (≈ 2.95 µM) | CCC(=O)NC(c1ccccc1)c1c(O)ccc2ccccc12 (centres undefined) |
| > 38.9 | CC(C)N(Cc1ccccc1)C(=O)c1cccs1 |
| 10.8 (≈ 31.2 µM) | Cc1ccccc1-n1c(=O)n(CCc2ccccc2)c(=O)c2[nH]cnc21 |
| 32.1 (≈ 101 µM) | Nc1ccc(C2(c3ccc(N)cc3)OC(=O)c3ccccc32)cc1 |
| > 50.9 | CC(C)(C)C(=O)Nc1ccc(S(=O)(=O)Nc2nccs2)cc1 |
| 34.3 (≈ 138 µM) | c1nc2ccc(Cc3ccc4nc[nH]c4c3)cc2[nH]1 |
| 7.7 (≈ 18.9 µM) | COc1ccc(S(=O)(=O)N2CCN(C(=O)c3cc4c(s3)CCC4)CC2)cc1 |
| 3.3 (≈ 6.36 µM) | Cc1ccc(S(=O)(=O)N2CCN(C(=O)CN3C(=O)NC(C)(c4ccc(Cl)cc4)C3=O)CC2)c(C)c1 (centres undefined) |
| > 39.9 | COc1ccc(Cc2nnc(-c3ccccc3)o2)cc1 |
| 8.5 (≈ 31.2 µM) | O=C1NC(c2ccccc2Cl)=N/C1=C/c1ccco1 |
| < 0.5 | N#CCc1cc2ccc3cccc4ccc(c1)c2c34 |
| 13 (≈ 41.1 µM) | Cn1c(CNc2ccc(Br)cc2)nc2ccccc21 |
| 0.5 (≈ 1.76 µM) | Cc1cc(N2CCCCC2C)nc(-c2ccccc2O)n1 (centres undefined) |
| > 63.8 | CSCCC(NC(=O)c1ccccc1)C(=O)N1CCN(C(=O)c2ccccc2)CC1 (centres undefined) |
| 41.9 (≈ 133 µM) | CN(CC(=O)Nc1ccc(F)cc1)C(=O)CCc1ccccc1 |
